pEC50: −log10 of the molar value.
Tests used:
[1] = Selectivity index, ratio of CC50 for human HepAD38 cells to IC50 for antiviral activity against HBV gene expressed in human HepAD38 cells assessed as inhibition of HBV DNA replication; assay type: toxicity, cell-based; details: read-out: Selectivity Index
[2] = Cytotoxicity against human HepAD38 cells measured after 72 hrs by CCK-8 assay; assay type: toxicity, cell-based
[3] = tested on: Hepatitis B virus; test: Antiviral activity against HBV gene expressed in human HePAD38 cells assessed as inhibition of HBV DNA replication by quantitative PCR analysis; assay type: functional, organism-based
[4] = Metabolic stability in human liver microsomes assessed as intrinsic clearance measured per mg of microsomal protein upto 60 mins by LC-MS/MS analysis; assay type: ADME, Microsome; details: read-out: CLH
[5] = Metabolic stability in human liver microsomes assessed as half life by LC-MS/MS analysis; assay type: ADME, Microsome
[6] = Metabolic stability in human liver microsomes assessed as intrinsic clearance (liver) upto 60 mins by LC-MS/MS analysis; assay type: ADME, Microsome; details: read-out: CLH
[7] = Stability in human plasma assessed as compound remaining measured after 30 mins by LC-MS/MS analysis; assay type: ADME, cell-free; details: read-out: Stability
[8] = Stability in human plasma assessed as half life by LC-MS/MS analysis; assay type: ADME, cell-free
[9] = Stability in human plasma assessed as compound remaining measured after 10 mins by LC-MS/MS analysis; assay type: ADME, cell-free; details: read-out: Stability
[10] = Stability in human plasma assessed as compound remaining measured after 60 mins by LC-MS/MS analysis; assay type: ADME, cell-free; details: read-out: Stability

| SMILES | selectivity ratio [1] | CC50 at 72 h [2] [µM] | pEC50 [3] | further results |
| --- | --- | --- | --- | --- |
| O=C(Nc1cc(F)c(F)c(F)c1)c1cc(S(=O)(=O)NC2CCCC2)c(F)cc1-c1cccs1 | 3.75 | 15 | 5.40 |  |
| CCNC(=S)Nc1cc(C(=O)Nc2cc(F)c(F)c(F)c2)c(C2CC2)cc1F | 233 | 21.2 | 7.04 |  |
| O=C(Nc1cc(F)c(F)c(F)c1)c1cc(S(=O)(=O)NC2CCCC2)c(F)cc1-c1ccsc1 | < 0.29 | 1.16 | < 5.40 |  |
| CC(C)NC(=S)Nc1cc(C(=O)Nc2cc(F)c(F)c(F)c2)c(C2CC2)cc1F | 510 | 16.8 | 7.48 |  |
| C=CCNC(=S)Nc1cc(C(=O)Nc2cc(F)c(F)c(F)c2)c(C2CC2)cc1F | 151 | 16.7 | 6.96 |  |
| CCOC(=O)C1=C(CN2CCOCC2)NC(c2nccs2)=N[C@H]1c1ccc(F)cc1Br |  |  | 7.66 |  |
| O=C(Nc1cc(F)c(F)c(F)c1)c1ccc(F)c(S(=O)(=O)N2CCC(O)CC2)c1 | 47.6 |  |  |  |
| O=C(O)Cc1ccccc1Nc1c(Cl)cccc1Cl [DICLOFENAC] |  |  |  | microsomal CLint [4]: 211 µL/min/mg; half-life [5]: 6.6 min; CLint scaled [6]: 190 mL/min/kg |
| C[C@]12CC[C@H]3[C@@H](CCC4=CC(=O)CC[C@@]43C)[C@@H]1CC[C@@H]2O [TESTOSTERONE] |  |  |  | microsomal CLint [4]: 74.5 µL/min/mg; CLint scaled [6]: 67 mL/min/kg |
| CC(C)[N+](C)(CCOC(=O)C1c2ccccc2Oc2ccccc21)C(C)C.[Br-] [PROPANTHELINE BROMIDE] |  |  |  | remaining at 0.5 h [7]: 18.9%; half-life [8]: 9.7 min; remaining at 10 min [9]: 70.1%; remaining at 1 h [10]: 1.5% |
| O=C(Nc1cc(F)c(F)c(F)c1)c1cc(NC(=S)NC2CC2)c(F)cc1C1CC1 | > 500 | > 100 | 6.70 |  |
| O=C(Nc1cc(F)c(F)c(F)c1)c1cc(S(=O)(=O)NC2CCCC2)c(F)cc1C1CC1 | 52.3 | 34 | 6.19 |  |
| O=C(/C=C/c1c(S(=O)(=O)N2CCOCC2)ccc(F)c1C(=O)Nc1cc(F)c(F)c(F)c1)OCCO |  | > 100 | < 5.40 |  |

From ChEMBL document CHEMBL6115023, “Design and biochemical evaluation of 2-cyclopropyl-thioureidobenzamide (CP-TBA) derivatives as potent HBV capsid assembly modulators targeting a novel binding site” (Eur J Med Chem, 2025)
